Twelve compounds from patent publication US20150057246A1, “SILYL-CONTAINING HETEROCYCLIC COMPOUNDS AND METHODS OF USE THEREOF FOR THE TREATMENT OF VIRAL DISEASES” (priority 2012, published 2015) can be followed below.

One may read the EC90 as the point of the concentration-response curve where the effect stands at 90%.

Where only a bound is given, the exact number is not on record here.

Assay [1] concerns HCV 1a replicon. Briefly: Cell-based HCV replicon assay (TaqMan), genotype 1a replicon. The settings on record: HCV genotype 1a replicon cells, replicon RNA by real time PCR, day 3, EC90 = concentration for ΔCT=3.2 over baseline. As to the method:
(§1) Measurement of inhibition by compounds of the present invention was performed using the HCV replicon system. Several different replicons encoding different HCV genotypes or mutations were used. In addition, potency measurements were made using different formats of the replicon assay, including different ways of measurements and different plating formats. See Jan M. Vrolijk et al., A replicons-based bioassay for the measurement of interferons in patients with chronic hepatitis C, 110 J. VIROLOGICAL METHODS 201 (2003); Steven S. Carroll et al., Inhibition of Hepatitis C Virus RNA Replication by 2′-Modified Nucleoside Analogs, 278(14) J. BIOLOGICAL CHEMISTRY 11979 (2003). However, the underlying principles are common to all of these determinations, and are outlined below.
(§2) TaqMan®-Based Assay Protocol:
(§3) Compounds of the present invention were assayed for cell-based anti-HCV activity using the following protocol. Replicon cells were seeded at 5000 cells/well in 96-well collagen I-coated Nunc plates in the presence of the test compound. Various concentrations of test compound, typically in 10 serial 2-fold dilutions, were added to the assay mixture, with the starting concentration ranging from 250 μM to 1 μM. The final concentration of DMSO was 0.5%, fetal bovine serum was 5%, in the assay media. Cells were harvested on day 3 by the addition of 1× cell lysis buffer (Ambion cat #8721). The replicon RNA level was measured using real time PCR (TaqMan® assay). The amplicon was located in 5B. The PCR primers were: 5B.2F, ATGGACAGGCGCCCTGA (SEQ. ID NO. 1); 5B.2R, […] (SEQ. ID NO. 2); the probe sequence was FAM-labeled CACGCCATGCGCTGCGG (SEQ. ID NO. 3). GAPDH RNA was used as endogenous control and was amplified in the same reaction as NS5B (multiplex PCR) using primers and VIC-labeled probe recommended by the manufacturer (PE Applied Biosystem). The real-time […] reactions were run on ABI PRISM 7900HT Sequence Detection System using the following program: 48° C. for 30 minutes, 95° C. for 10 minutes, 40 cycles of 95° C. for 15 sec, 60° C. for 1 minute. The ΔCT values (CT5B-CTGAPDH) were plotted against the concentration of test compound and fitted to the sigmoid dose-response model using XLfit4 (MDL). EC50 was defined as the concentration of inhibitor necessary to achieve ΔCT=1 over the projected baseline; EC90 the concentration necessary to achieve ΔCT=3.2 over the baseline. Alternatively, to quantitate the absolute amount of replicon RNA, a standard curve was established by including serially diluted T7 transcripts of replicon RNA in the Taqman assay. All TaqMan® reagents were from PE Applied Biosystems. Such an assay procedure was described in detail in e.g. Malcolm et al., Antimicrobial Agents and Chemotherapy 50: 1013-1020 (2006).
(§4) HCV replicon EC50 assay data for various replicons and mutants was calculated for selected compounds of the present invention using this method and is provided in the tables above herein.

The subject of assay [2] is HCV 1a Y93H replicon. In words: Cell-based HCV replicon assay (TaqMan), 1a Y93H mutant replicon. The settings on record: Hepatitis C virus, 72 h, read-out: 1a Y93H EC90, HCV 1a Y93H mutant replicon cells, replicon RNA by real time PCR, day 3; EC90 = concentration for ΔCT=3.2 over baseline. As to the method: as §1, §2, §3, §4
Assay [3] concerns HCV 2b replicon. In words: Cell-based HCV replicon assay (TaqMan), genotype 2b replicon. The settings on record: Hepatitis C virus, 72 h, read-out: 2b EC90, HCV genotype 2b replicon cells, replicon RNA by real time PCR, day 3; EC90 = concentration for ΔCT=3.2 over baseline. As to the method: as §1, §2, §3, §4
For orientation: A replicon is a self-replicating genome or part of one, used to study replication in cells.

For the compound `COC(=O)N[C@H](C(=O)N1CCC[C@H]1c1nc(Cl)c(-c2ccc(-c3ccc4c(ccc5nc([C@@H]6C[Si](C)(C)CN6C(=O)[C@@H](NC(=O)OC)C(C)C)[nH]c54)c3)cc2)[nH]1)C(C)C` [Compound 94], the EC90 in assay [1] (Hepatitis C virus, 72 h) turned out to be 0.19 nM; in assay [2], 935 nM; in assay [3] it was 184 nM.

As to `COC(=O)N[C@H](C(=O)N1CCC[C@H]1c1ncc(-c2ccc(-c3ccc4c(ccc5nc([C@@H]6C[Si](C)(C)CN6C(=O)[C@H]6COCCN6C(=O)OC)[nH]c54)c3)cc2)[nH]1)C(C)C` [Compound 63], the EC90 in assay [1] (Hepatitis C virus, 72 h) was 5.1 nM; in assay [2], > 1000 nM; in assay [3] it was > 1000 nM.

Take `CC[C@H](NC(=O)OC)C(=O)N1C[Si](C)(C)C[C@H]1c1ncc(-c2ccc(-c3ccc4c(ccc5nc([C@@H]6CCCN6C(=O)[C@H](CC)NC(=O)OC)[nH]c54)c3)cc2)[nH]1` [Compound 44]: the EC90 came out at 0.3 nM in assay [1] (Hepatitis C virus, 72 h); 302 nM in assay [2]; 171 nM in assay [3].

Take `CCCC(NC(=O)OC)C(=O)N1C[Si](C)(C)C[C@H]1c1ncc(-c2ccc(-c3ccc4c(ccc5nc([C@@H]6CCCN6C(=O)[C@H](CCC)NC(=O)OC)[nH]c54)c3)cc2)[nH]1` (some centres unmarked) [Compound 48]: the EC90 in assay [1] (Hepatitis C virus, 72 h) stood at 0.64 nM; in assay [2], 761 nM; in assay [3], 882 nM.

As for `COC(=O)N[C@@H](Cn1cccn1)C(=O)N1C[Si](C)(C)C[C@H]1c1nc2ccc3cc(-c4ccc(-c5cnc([C@@H]6CCCN6C(=O)[C@@H](NC(=O)OC)C(C)C)[nH]5)cc4)ccc3c2[nH]1` [Compound 66], the EC90 is 0.39 nM in assay [1] (Hepatitis C virus, 72 h); > 1000 nM in assay [2]; 321 nM in assay [3].

For the compound `COC(=O)N[C@H](C(=O)N1C[Si](C)(C)C[C@H]1c1ncc(-c2ccc(-c3ccc4c(ccc5nc([C@@H]6CCCN6C(=O)[C@@H](NC(=O)OC)C6CCCOCC6)[nH]c54)c3)cc2)[nH]1)C1CCCOCC1` (some centres unmarked) [Compound 52], the EC90 is 2.3 nM in assay [1] (Hepatitis C virus, 72 h); > 1000 nM in assay [2]; 37 nM in assay [3].

With `COC(=O)N[C@H](C(=O)N1C[Si](C)(C)C[C@H]1c1nc2ccc3cc(-c4ccc(-c5cnc([C@@H]6C[C@H]7C[C@H]7N6C(=O)[C@@H](NC(=O)OC)C6CCOCC6)[nH]5)cc4)ccc3c2[nH]1)C1CCOCC1` [Compound 99], the EC90 in assay [1] (Hepatitis C virus, 72 h) is 0.14 nM; in assay [2], 42 nM; in assay [3], 3.5 nM.

As to `COC(=O)N[C@@H](CCSC)C(=O)N1C[Si](C)(C)C[C@H]1c1ncc(-c2ccc(-c3ccc4c(ccc5nc([C@@H]6CCCN6C(=O)[C@H](CCSC)NC(=O)OC)[nH]c54)c3)cc2)[nH]1` [Compound 45], the EC90 in assay [1] (Hepatitis C virus, 72 h) was 0.85 nM; in assay [2] it was > 1000 nM; in assay [3], 563 nM.

Consider `CC(C)(C)OC(=O)N1C[Si](C)(C)C[C@H]1c1nc2ccc3cc(-c4ccc(-c5nc(Cl)c([C@@H]6C[C@H]7C[C@H]7N6C(=O)OC(C)(C)C)[nH]5)cc4)ccc3c2[nH]1` [Compound 109], for which the EC90 is > 1 nM in assay [1] (Hepatitis C virus, 72 h) and > 100 nM in assay [2].

As to `CC(C)(C)OC(=O)N1CCC[C@H]1c1ncc(-c2ccc3cc(-c4ccc5c(ccc6nc([C@@H]7C[Si](C)(C)CN7C(=O)OC(C)(C)C)[nH]c65)c4)ccc3c2)[nH]1` [Compound 110], the EC90 in assay [1] (Hepatitis C virus, 72 h) was > 1000 nM; in assay [2] it was > 1000 nM.

As for `CC(C)(C)OC(=O)N1C[Si](C)(C)C[C@H]1c1nc2ccc3cc(-c4ccc(-c5cnc([C@@H]6C[C@H]7C[C@H]7N6C(=O)OC(C)(C)C)[nH]5)cc4)ccc3c2[nH]1` [Compound 97], the results for the EC90 in assay [1] and in assay [2] were > 1 nM and > 1000 nM, respectively.

On to `COC(=O)N[C@H](C(=O)N1C[Si](C)(C)C[C@H]1c1nc2ccc3cc(-c4ccc(-c5[nH]c([C@@H]6C[C@H]7C[C@H]7N6C(=O)[C@@H](NC(=O)OC)C(C)C)nc5Cl)cc4)ccc3c2[nH]1)C(C)C` [Compound 102], for which the EC90 in assay [1] (Hepatitis C virus, 72 h) worked out at 0.048 nM; in assay [2], 140 nM.
